# Measured values published in paper PMC5615155 (Toxicology Reports, 2017).
# Where two headings read alike, the source gives them in different places.
# Experiments:
# [1] = in vitro microsomal metabolism; format: in vitro ADME, human; conditions: 10 μM, 0.5 mg/mL, +NADPH, 120 min
# [2] = in vitro microsomal metabolism; format: in vitro ADME, Sprague-Dawley rat; conditions: 10 μM, 0.5 mg/mL, +NADPH, 120 min
# [3] = tested on: S. typhimurium strains TA98, TA100, TA1535, TA1537; conditions: up to 5000 μg/plate, with and without metabolic activation; cited from earlier work
# [4] = cited from earlier work
# HPBLs = conditions: cited from earlier work
# CHO-WBL cells = conditions: ± metabolic activation, up to 2500 μg/mL; cited from earlier work
# E. coli strain WP2 uvrA = conditions: up to 5000 μg/plate, with and without metabolic activation; cited from earlier work
# [5] = male mice, 2000 mg/kg bw; cited from earlier work
# [6] = Day 1 of 90-day study, cited from earlier work
compound,measurement,setting,value
"O=C1CC2(CCCC2)CC(=O)N1CCCCN1CCN(c2ncccn2)CC1 [Buspirone, reference compound]",% MS (EIC) peak area of parent relative to time 0,[1],2%
same,% MS (EIC) peak area of parent relative to time 0,[2],21%
"CC(C)CC(=O)N1CCC[C@H](COc2cccc3c2C(N)=NS(=O)(=O)N3)C1 [S617, (S)-1-(3-(((4-amino-2,2-dioxido-1H-benzo[c][1,2,6]thiadiazin-5-yl)oxy)methyl)piperidin-1-yl)-3-methylbutan-1-one]",bacterial reverse mutation result,[3],non-mutagenic
same,AUClast,"[4]; iv 1.0 mg/kg, F",212 ng·h/mL
same,Cmax,"[4]; iv 1.0 mg/kg, F",1308 ng/mL
same,Tmax,"[4]; iv 1.0 mg/kg, F",0.03 h
same,AUClast,"[4]; iv 1.0 mg/kg, M",263 ng·h/mL
same,Cmax,"[4]; iv 1.0 mg/kg, M",1663 ng/mL
same,Tmax,"[4]; iv 1.0 mg/kg, M",0.03 h
same,%F,"[4]; oral gavage 10 mg/kg, F",1.73%
same,AUClast,"[4]; oral gavage 10 mg/kg, F",36.7 ng·h/mL
same,Cmax,"[4]; oral gavage 10 mg/kg, F",4.80 ng/mL
same,Tmax,"[4]; oral gavage 10 mg/kg, F",0.88 h
same,t1/2,"[4]; oral gavage 10 mg/kg, F",4.25 h
same,%F,"[4]; oral gavage 10 mg/kg, M",0.67%
same,AUClast,"[4]; oral gavage 10 mg/kg, M",17.5 ng·h/mL
same,Cmax,"[4]; oral gavage 10 mg/kg, M",3.30 ng/mL
same,Tmax,"[4]; oral gavage 10 mg/kg, M",0.44 h
same,t1/2,"[4]; oral gavage 10 mg/kg, M",3.85 h
same,%F,"[4]; oral gavage 30 mg/kg, F",0.89%
same,AUClast,"[4]; oral gavage 30 mg/kg, F",56.3 ng·h/mL
same,Cmax,"[4]; oral gavage 30 mg/kg, F",9.40 ng/mL
same,Tmax,"[4]; oral gavage 30 mg/kg, F",1.38 h
same,t1/2,"[4]; oral gavage 30 mg/kg, F",3.57 h
same,%F,"[4]; oral gavage 30 mg/kg, M",0.54%
same,AUClast,"[4]; oral gavage 30 mg/kg, M",42.5 ng·h/mL
same,Cmax,"[4]; oral gavage 30 mg/kg, M",7.10 ng/mL
same,Tmax,"[4]; oral gavage 30 mg/kg, M",1.25 h
same,t1/2,"[4]; oral gavage 30 mg/kg, M",3.03 h
same,%F,"[4]; oral gavage 100 mg/kg, F",0.44%
same,AUClast,"[4]; oral gavage 100 mg/kg, F",92.6 ng·h/mL
same,Cmax,"[4]; oral gavage 100 mg/kg, F",18.3 ng/mL
same,Tmax,"[4]; oral gavage 100 mg/kg, F",0.50 h
same,t1/2,"[4]; oral gavage 100 mg/kg, F",1.45 h
same,%F,"[4]; oral gavage 100 mg/kg, M",0.20%
same,AUClast,"[4]; oral gavage 100 mg/kg, M",53.2 ng·h/mL
same,Cmax,"[4]; oral gavage 100 mg/kg, M",10.1 ng/mL
same,Tmax,"[4]; oral gavage 100 mg/kg, M",1.38 h
same,t1/2,"[4]; oral gavage 100 mg/kg, M",3.48 h
same,chromosome aberration result,HPBLs,non-clastogenic
same,in vitro micronucleus result,CHO-WBL cells,neither clastogenic nor aneugenic
same,bacterial reverse mutation result,E. coli strain WP2 uvrA,non-mutagenic
"CCCNC(=O)C(C)(C)COc1cccc2c1C(N)=NS(=O)(=O)N2 [S6973, 3-((4-amino-2,2-dioxido-1H-benzo[c][1,2,6]thiadiazin-5-yl)oxy)-2,2-dimethyl-N-propylpropanamide]",in vivo micronucleus result,[5],neither clastogenic nor aneugenic
same,bacterial reverse mutation result,[3],non-mutagenic
same,AUClast,"[4]; iv 2.5 mg/kg, M",1760 ng·h/mL
same,Cmax,"[4]; iv 2.5 mg/kg, M",3997 ng/mL
same,Tmax,"[4]; iv 2.5 mg/kg, M",0.083 h
same,t1/2,"[4]; iv 2.5 mg/kg, M",0.78 h
same,%F,"[4]; oral gavage 5.0 mg/kg, M",9.56%
same,AUClast,"[4]; oral gavage 5.0 mg/kg, M",337 ng·h/mL
same,Cmax,"[4]; oral gavage 5.0 mg/kg, M",74.8 ng/mL
same,Tmax,"[4]; oral gavage 5.0 mg/kg, M",1.33 h
same,t1/2,"[4]; oral gavage 5.0 mg/kg, M",3.67 h
same,%F,"[4]; oral gavage 10 mg/kg, M",6.43%
same,AUClast,"[4]; oral gavage 10 mg/kg, M",453 ng·h/mL
same,Cmax,"[4]; oral gavage 10 mg/kg, M",103 ng/mL
same,Tmax,"[4]; oral gavage 10 mg/kg, M",1.00 h
same,t1/2,"[4]; oral gavage 10 mg/kg, M",2.98 h
same,%F,"[4]; oral gavage 20 mg/kg, M",3.93%
same,AUClast,"[4]; oral gavage 20 mg/kg, M",553 ng·h/mL
same,Cmax,"[4]; oral gavage 20 mg/kg, M",111 ng/mL
same,Tmax,"[4]; oral gavage 20 mg/kg, M",1.33 h
same,t1/2,"[4]; oral gavage 20 mg/kg, M",4.53 h
same,chromosome aberration result,HPBLs,non-clastogenic
same,"bioavailability, food ad-mix",[6]; 5.0 mg/kg bw,8.04%
same,"bioavailability, food ad-mix",[6]; 20 mg/kg bw,7.73%
same,bacterial reverse mutation result,E. coli strain WP2 uvrA,non-mutagenic
